Measured values taken from patent US20020081602A1, “Method for the detection of compounds that modulate the effects of the obese (ob) protein” (SmithKline Beecham p.1.c., priority 1996, published 2002).

What was measured:
WRL68 cells = assay: c-fos expression by northern blotting in serum-starved WRL68 cells; format: cell-based; conditions: treated 5 minutes to 2 hours, normalised to beta-actin
Procedure: 7. Detection of increased c-fos mRNA after treatment with leptin. C-fos mRNA may be detected by Northern, RT-PCR or “slot blot” analysis.
WRL68 cells were grown to confluence in their standard culture medium in the simultaneous presence of 10% foetal calf serum. At confluence the cells were transferred to serum-free medium for a minimum of 18 hours (lowering the serum concentration may also produce similar results). Serum-starved cells were then treated with leptin or with serum (as positive control for c-fos upregulation) for varying time periods from 5 minutes to 2 hours. RNA was extracted from the cells and subjected to gel electrophoresis and northern blotting. The blotted RNA was then probed with a c-fos labelled probe to analyze the expression of c-fos, the data being normalised by analysing the expression of beta-actin. […] Therefore WRL68 cells is expected to be suitable for identification of leptin mimetics. Other cell lines could also be identified via analysis of c-fos expression in response to leptin.

[1] = test system: rat-1 fibroblasts over expressing insulin receptors; conditions: Kroder et al. 1996; cited from earlier work

Leptin: secreted hormone that acts as signal from adipose tissue to other organs to regulate weight and energy balance
c-fos expression (WRL68 cells): significantly enhanced | insulin stimulated phosphorylation of the insulin receptor and insulin receptor substrate-I [1]: inhibition
